Experimental data reported in patent US20040259198A1, “Purified and isolated mat II beta subunit nucleic acids and polypeptides and therapeutic and screening methods using same” (priority 1999, published 2004).
Like-named read-outs stand apart in the source and are kept apart here.

Key:
[1] = system: MAT I; conditions: cited from earlier work
[2] = system: MAT II; assay: MAT activity and kinetics in extracts of transfected Cos-1 cells; type: biochemical, African green monkey; conditions: for Km: Cos-1 cells expressing high levels of rα2, two kinetic forms, read-out: Km for L-Met, lower-Km kinetic form
Procedure: Transfection of Cos-1 cells with pTargeT™/MAT2A or pTargeT™/MAT2B was done using the cationic lipid reagent, Transfast™ (Promega). Preliminary experiments were carried out to optimize the transfection conditions. Typically, 1.5×10^6 cells were plated in 100 mm dish one day prior to transfection. For each plate, […] of vector DNA was applied in the ratio of 1:1 to Transfast™ in a protein-free medium for 2 h. For cells co-transfected with both α2 and β vectors, […] DNA from each was used. For each experiment, one untransfected plate served as a normal control, and a second plate was transfected with the pTargeT™ vector only (mock-transfected cells). After 48 h, cells were harvested by trypsinization with a solution containing 0.05% trypsin and 0.53 mM EDTA in Hank's balanced salt solution (HBSS, from Cellgro). Trypsinization was stopped by the addition of media supplemented with 10% FCS, cells were pelleted, washed three times in 1 ml HBSS, counted, then resuspended in 1× extraction buffer with protease inhibitors (50 mM Tris, pH 7.4, 100 mM NaCl, 5 mM MgCl2, 4 mM dithiothreitol, 0.1 IU/ml aprotinin, 0.5 mM PMSF and […] soybean trypsin inhibitor). Cells were lysed by three cycles of quick freezing and thawing, and the lysate was clarified by centrifugation at 15,000×g for 10 min at 4° C. If not immediately used; cell extracts were stored at −80° C. Protein assays were performed using the bicinchoninic acid reagent (Sigma) following the manufacturer instructions.
MAT activity in cell extracts was assayed as previously described (Kotb, M., and Kredich, N. M. (1985) J. Biol. Chem. 260, 3923-30). […] The concentration of L-Met was varied between […] using ^14C-L-Met (57.9 mCi/mmol) to a concentration of up to […], and supplementary with cold L-Met for higher concentrations.

[3] = system: MAT III; conditions: cited from earlier work
[4] = target: T1, MAT II from human leukemic cells (Homo sapiens, UniProt P31153); conditions: cited from earlier work
T1 construct: MAT II from human leukemic cells expressing both the α and β subunits of the enzyme; host or cells: human leukemic cells

Compound: MAT I: hepatic MAT, tetramer of the α1 catalytic subunit
- Km ([1]; read-out: Km for L-Met): 3 to 14 µM

Compound: recombinant human MAT II α2: recombinant catalytic α2 subunit of human MAT II, encoded by MAT2A, His-tagged
- Km ([2]; listed as rMAT II α2 protein): 15.1 µM
- Km ([2]; listed as rα2): 15 µM
- effect on MAT (specific) activity ([2]; expression in Cos-1 cells, result in words): markedly increased
- increase in MAT activity ([2]; transfected Cos-1 cell extracts compared to untransfected (or mock-transfected) cells): 3-4 fold

Compound: MAT III: hepatic MAT, dimer of the α1 catalytic subunit
- Km ([3]; read-out: Km for L-Met): 100 to 200 µM

Compound: C[S+](CC[C@H](N)C(=O)[O-])C[C@H]1O[C@@H](n2cnc3c(N)ncnc32)[C@H](O)[C@@H]1O (stereo partly shown) [AdoMet, S-adenosylmethionine, reference compound]
- inhibition of enzyme activity ([4]; 25 μM AdoMet and 30 μM PPi): 3 fold
- inhibition of enzyme activity ([4]; 25 μM AdoMet): ~2 fold
- effect of AdoMet on enzyme [1]: inhibited
- effect of AdoMet on enzyme [3]: activated
